According to US8455475B2 (Gruenenthal GmbH, priority 2009, dated 2013):

Target: T1, rat B1R (bradykinin receptor 1) (Rattus norvegicus, UniProt P97583)
T1 construct: expressed in transfected cells; host or cells: CHO K1 cells
T1 sequence (P97583 1-337): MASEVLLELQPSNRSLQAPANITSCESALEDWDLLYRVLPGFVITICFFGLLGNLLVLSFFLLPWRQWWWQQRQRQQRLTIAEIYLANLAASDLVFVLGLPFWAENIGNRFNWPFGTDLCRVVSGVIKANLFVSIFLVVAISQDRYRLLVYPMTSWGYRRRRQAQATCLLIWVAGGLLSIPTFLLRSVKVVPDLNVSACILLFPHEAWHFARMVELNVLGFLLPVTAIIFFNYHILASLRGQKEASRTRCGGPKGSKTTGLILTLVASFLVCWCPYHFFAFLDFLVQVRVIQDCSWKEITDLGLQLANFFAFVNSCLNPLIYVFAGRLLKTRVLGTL
Assay: FLIPR Ca2+ assay (Fluo-4) on CHO K1 cells stably transfected with the B1R gene of the rat (rB1R cells): % inhibition at 10 μM / IC50, agonist Des-Arg9-bradykinin
Type: cell-based
Conditions: CHO-K1, rat B1R
In short: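 Stably transfected CHO K1 cells loaded with Fluo-4 and read on FLIPR (λex 488, λem 540 nm; peak fluorescence). Test substance (10 μM) added first, then after 10–20 min the agonist at EC80; % inhibition versus maximum achievable inhibition. IC50 from several concentrations, n=2–3, N≥2.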

| SMILES | inhibition at 10 µM [%] |
| --- | --- |
| Cc1nc(CN2CCC3(CC2)CCN(C(=O)c2ccc4c(c2)C(NC(=O)c2c(F)cccc2Cl)CC4)C3)c[nH]1 (centres unmarked) [IND_CC-736, 2-Chloro-6-fluoro-N-[6-[8-[(2-methyl-1H-imidazol-4-yl)-methyl]-2,8-diazaspiro[4.5]decane-2-carbonyl]-2,3-dihydro-1H-inden-1-yl]-benzamide] | 93 |
| Cc1c(CN2CCC3(CC2)CCN(C(=O)c2ccc4c(c2)C(NC(=O)c2c(F)cccc2Cl)CC4)C3)cnn1C (centres unmarked) [IND_CC-737, 2-Chloro-N-[6-[8-[(1,5-dimethyl-1H-pyrazol-4-yl)-methyl]-2,8-diazaspiro-[4.5]decane-2-carbonyl]-2,3-dihydro-1H-inden-1-yl]-6-fluoro-benzamide] | 55 |
| Cc1noc(C)c1CN1CCC2(CC1)CCN(C(=O)c1ccc3c(c1)C(NC(=O)c1c(F)cccc1Cl)CC3)C2 (centres unmarked) [IND_CC-738, 2-Chloro-N-[6-[8-[(3,5-dimethyl-isoxazol-4-yl)-methyl]-2,8-diazaspiro-[4.5]decane-2-carbonyl]-2,3-dihydro-1H-inden-1-yl]-6-fluoro-benzamide] | 89 |
| N#Cc1ccc(CN2CCC3(CC2)CCN(C(=O)c2ccc4c(c2)C(NC(=O)c2c(F)cccc2Cl)CC4)C3)cc1 (centres unmarked) [IND_CC-739, 2-Chloro-N-[6-[8-[(4-cyano-phenyl)-methyl]-2,8-diazaspiro[4.5]decane-2-carbonyl]-2,3-dihydro-1H-inden-1-yl]-6-fluoro-benzamide] | 83 |
| N#Cc1ccccc1CN1CCC2(CC1)CCN(C(=O)c1ccc3c(c1)C(NC(=O)c1c(F)cccc1Cl)CC3)C2 (centres unmarked) [IND_CC-740, 2-Chloro-N-[6-[8-[(2-cyano-phenyl)-methyl]-2,8-diazaspiro[4.5]decane-2-carbonyl]-2,3-dihydro-1H-inden-1-yl]-6-fluoro-benzamide] | 88 |
| CCn1cc(CN2CCC3(CC2)CCN(C(=O)c2ccc4c(c2)C(NC(=O)c2cccc(Cl)c2Cl)CC4)C3)c(C)n1 (centres unmarked) [IND_CC-742, 2,3-Dichloro-N-[6-[8-[(1-ethyl-3-methyl-1H-pyrazol-4-yl)-methyl]-2,8-diazaspiro[4.5]decane-2-carbonyl]-2,3-dihydro-1H-inden-1-yl]-benzamide] | 50 |
| CN(C)c1ncc(CN2CCC3(CC2)CCN(C(=O)c2ccc4c(c2)C(NC(=O)c2cccc(Cl)c2Cl)CC4)C3)cn1 (centres unmarked) [IND_CC-743, 2,3-Dichloro-N-[6-[8-[(2-dimethylamino-pyrimidin-5-yl)-methyl]-2,8-diazaspiro[4.5]decane-2-carbonyl]-2,3-dihydro-1H-inden-1-yl]-benzamide] | 80 |
| O=C(NC1CCc2ccc(C(=O)N3CCC4(CCN(Cc5ccc6ncccc6c5)CC4)C3)cc21)c1cccc(Cl)c1Cl (centres unmarked) [IND_CC-744, 2,3-Dichloro-N-[6-[8-(quinolin-6-yl-methyl)-2,8-diazaspiro[4.5]decane-2-carbonyl]-2,3-dihydro-1H-inden-1-yl]-benzamide] | 71 |
| O=C(NC1CCc2ccc(C(=O)N3CCC4(CCN(Cc5ccc6nccnc6c5)CC4)C3)cc21)c1cccc(Cl)c1Cl (centres unmarked) [IND_CC-745, 2,3-Dichloro-N-[6-[8-(quinoxalin-6-yl-methyl)-2,8-diazaspiro[4.5]decane-2-carbonyl]-2,3-dihydro-1H-inden-1-yl]-benzamide] | 70 |
| Cn1nnc2cc(CN3CCC4(CC3)CCN(C(=O)c3ccc5c(c3)C(NC(=O)c3cccc(Cl)c3Cl)CC5)C4)ccc21 (centres unmarked) [IND_CC-746, 2,3-Dichloro-N-[6-[8-[(1-methyl-1H-benzotriazol-5-yl)-methyl]-2,8-diazaspiro[4.5]decane-2-carbonyl]-2,3-dihydro-1H-inden-1-yl]-benzamide] | 78 |
| CC(C)CN1CCC2(CC1)CCN(C(=O)c1ccc3c(c1)C(NC(=O)c1cccc(Cl)c1Cl)CC3)C2 (centres unmarked) [IND_CC-747, 2,3-Dichloro-N-[6-[8-(2-methyl-propyl)-2,8-diazaspiro[4.5]decane-2-carbonyl]-2,3-dihydro-1H-inden-1-yl]-benzamide] | 59 |
| CCC(CC)CN1CCC2(CC1)CCN(C(=O)c1ccc3c(c1)C(NC(=O)c1cccc(Cl)c1Cl)CC3)C2 (centres unmarked) [IND_CC-748, 2,3-Dichloro-N-[6-[8-(2-ethyl-butyl)-2,8-diazaspiro[4.5]decane-2-carbonyl]-2,3-dihydro-1H-inden-1-yl]-benzamide] | 70 |
| O=C(NC1CCc2ccc(C(=O)N3CCC4(CCN(CCc5ccccc5)CC4)C3)cc21)c1cccc(Cl)c1Cl (centres unmarked) [IND_CC-749, 2,3-Dichloro-N-[6-(8-phenethyl-2,8-diazaspiro[4.5]decane-2-carbonyl)-2,3-dihydro-1H-inden-1-yl]-benzamide] | 70 |
| O=C(NC1CCc2ccc(C(=O)N3CCC4(CCN(CCCc5cccc(F)c5)CC4)C3)cc21)c1cccc(Cl)c1Cl (centres unmarked) [IND_CC-750, 2,3-Dichloro-N-[6-[8-[3-(3-fluorophenyl)-propyl]-2,8-diazaspiro[4.5]decane-2-carbonyl]-2,3-dihydro-1H-inden-1-yl]-benzamide] | 99 |
| O=C(NC1CCc2ccc(C(=O)N3CCC4(CCN(CCCc5ccc(F)cc5)CC4)C3)cc21)c1cccc(Cl)c1Cl (centres unmarked) [IND_CC-751, 2,3-Dichloro-N-[6-[8-[3-(4-fluorophenyl)-propyl]-2,8-diazaspiro[4.5]decane-2-carbonyl]-2,3-dihydro-1H-inden-1-yl]-benzamide] | 98 |
| CCn1cc(CN2CCC3(CC2)CCN(C(=O)c2ccc4c(c2)C(NC(=O)c2cccc(Cl)c2Cl)CC4)CC3)c(C)n1 (centres unmarked) [IND_CC-752, 2,3-Dichloro-N-[6-[9-[(1-ethyl-3-methyl-1H-pyrazol-4-yl)-methyl]-3,9-diazaspiro[5.5]undecane-3-carbonyl]-2,3-dihydro-1H-inden-1-yl]-benzamide] | 69 |
| CN(C)c1ncc(CN2CCC3(CC2)CCN(C(=O)c2ccc4c(c2)C(NC(=O)c2cccc(Cl)c2Cl)CC4)CC3)cn1 (centres unmarked) [IND_CC-753, 2,3-Dichloro-N-[6-[9-[(2-dimethylamino-pyrimidin-5-yl)-methyl]-3,9-diazaspiro[5.5]undecane-3-carbonyl]-2,3-dihydro-1H-inden-1-yl]-benzamide] | 90 |
| O=C(NC1CCc2ccc(C(=O)N3CCC4(CCN(Cc5ccc6ncccc6c5)CC4)CC3)cc21)c1cccc(Cl)c1Cl (centres unmarked) [IND_CC-754, 2,3-Dichloro-N-[6-[9-(quinolin-6-yl-methyl)-3,9-diazaspiro[5.5]undecane-3-carbonyl]-2,3-dihydro-1H-inden-1-yl]-benzamide] | 87 |
| O=C(NC1CCc2ccc(C(=O)N3CCC4(CCN(Cc5ccc6nccnc6c5)CC4)CC3)cc21)c1cccc(Cl)c1Cl (centres unmarked) [IND_CC-755, 2,3-Dichloro-N-[6-[9-(quinoxalin-6-yl-methyl)-3,9-diazaspiro[5.5]undecane-3-carbonyl]-2,3-dihydro-1H-inden-1-yl]-benzamide] | 92 |
| Cn1nnc2cc(CN3CCC4(CC3)CCN(C(=O)c3ccc5c(c3)C(NC(=O)c3cccc(Cl)c3Cl)CC5)CC4)ccc21 (centres unmarked) [IND_CC-756, 2,3-Dichloro-N-[6-[9-[(1-methyl-1H-benzotriazol-5-yl)-methyl]-3,9-diazaspiro[5.5]undecane-3-carbonyl]-2,3-dihydro-1H-inden-1-yl]-benzamide] | 104 |
| CC(C)CN1CCC2(CC1)CCN(C(=O)c1ccc3c(c1)C(NC(=O)c1cccc(Cl)c1Cl)CC3)CC2 (centres unmarked) [IND_CC-757, 2,3-Dichloro-N-[6-[9-(2-methyl-propyl)-3,9-diazaspiro[5.5]undecane-3-carbonyl]-2,3-dihydro-1H-inden-1-yl]-benzamide] | 52 |
| O=C(NC1CCc2ccc(C(=O)N3CCC4(CCN(CCc5ccccc5)CC4)CC3)cc21)c1cccc(Cl)c1Cl (centres unmarked) [IND_CC-758, 2,3-Dichloro-N-[6-(9-phenethyl-3,9-diazaspiro[5.5]undecane-3-carbonyl)-2,3-dihydro-1H-inden-1-yl]-benzamide] | 86 |
| O=C(NC1CCc2ccc(C(=O)N3CCC4(CCN(CCCc5cccc(F)c5)CC4)CC3)cc21)c1cccc(Cl)c1Cl (centres unmarked) [IND_CC-759, 2,3-Dichloro-N-[6-[9-[3-(3-fluorophenyl)-propyl]-3,9-diazaspiro[5.5]undecane-3-carbonyl]-2,3-dihydro-1H-inden-1-yl]-benzamide] | 78 |
| O=C(NC1CCc2ccc(C(=O)N3CCC4(CCN(CCCc5ccc(F)cc5)CC4)CC3)cc21)c1cccc(Cl)c1Cl (centres unmarked) [IND_CC-760, 2,3-Dichloro-N-[6-[9-[3-(4-fluorophenyl)-propyl]-3,9-diazaspiro[5.5]undecane-3-carbonyl]-2,3-dihydro-1H-inden-1-yl]-benzamide] | 93 |
| Cc1cccc(Cl)c1C(=O)NC1CCc2ccc(C(=O)N3CCC4(CCN(Cc5c(C)nn(C)c5C)CC4)C3)cc21 (centres unmarked) [IND_CC-761, 2-Chloro-6-methyl-N-[6-[8-[(1,3,5-trimethyl-1H-pyrazol-4-yl)-methyl]-2,8-diazaspiro[4.5]decane-2-carbonyl]-2,3-dihydro-1H-inden-1-yl]-benzamide] | 57 |
| CCn1cc(CN2CCC3(CC2)CCN(C(=O)c2ccc4c(c2)C(NC(=O)c2c(C)cccc2Cl)CC4)C3)c(C)n1 (centres unmarked) [IND_CC-762, 2-Chloro-N-[6-[8-[(1-ethyl-3-methyl-1H-pyrazol-4-yl)-methyl]-2,8-diazaspiro-[4.5]decane-2-carbonyl]-2,3-dihydro-1H-inden-1-yl]-6-methyl-benzamide] | 55 |
